In patent publication US11279733B2, “Peptide antibiotics” (priority 2017, dated 2022):
≈ marks a conversion by molar mass, not a printed value. Where two headings read alike, the source gives them in different places. Positions of bridges follow the written chain, without caps; N, C: chain ends. Non-standard residues stand in square brackets, D forms with d. Residues, ends and D or L forms follow the SMILES beside them. *: point of attachment. Decanoyl(3R-OH) = CCCCCCC[C@@H](O)CC(=O)*; d3Pal = N[C@H](Cc1cccnc1)C(=O)O; dOrn = NCCC[C@@H](N)C(=O)O; dDab = NCC[C@@H](N)C(=O)O; Dab = NCC[C@H](N)C(=O)O; Dap = NC[C@H](N)C(=O)O

Key:
in vitro = settings: human
In short: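 HK2 cells were seeded at 2000 per well in DMEM/F12 with 10% FBS and left to attach for 24 h at 37 °C, 5% CO2. They were then exposed for 24 h to 3-fold peptide dilutions starting from 600 μM solutions in quadruplicate. LDH release was read at 450 nm, and CC50 was fitted from dose-response curves.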

K. pneumoniae ATCC 13883 = settings: ATCC 13883
In short: (§1)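 Mid-log cultures grown in Mueller Hinton broth at 37° C were tested by 2-fold broth microdilution at 5×10^5 CFU/mL final. Compounds were dissolved in water and tested over a final range of 32 to 0.015 μg/mL.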

[1] = system: P. aeruginosa GN_043, PmxR
In short: as §1

[2] = system: K. pneumoniae ATCC BAA-2146, NDM-1 pos; settings: ATCC BAA-2146
In short: as §1

P. aeruginosa ATCC 27853 = settings: ATCC 27853
In short: as §1

E. coli ATCC 25922 = settings: ATCC 25922
In short: as §1

A. baumannii ATCC 19606 = settings: ATCC 19606
In short: as §1

[3] = system: P. aeruginosa GN_105, PmxR; settings: GN 105, PmxR
In short: as §1

[4] = system: S. aureus ATCC 25923, MSSA; settings: ATCC 25923
In short: as §1

A. baumannii GN_093 PmxR = settings: GN 093 PmxR
In short: as §1

[5] = system: K. pneumoniae GN_106, PmxR; settings: GN 106, PmxR
In short: as §1

[6] = system: K. pneumoniae GN_102 PmxR; settings: GN 102 PmxR
In short: as §1

[7] = system: K. pneumoniae ATCC 700603, MDR; settings: ATCC 700603
In short: as §1

CCCCCCC[C@@H](O)CC(=O)N[C@H](CCN)C(=O)N[C@H]1CCNC(=O)[C@H](Cc2ccccc2)NC(=O)[C@H](CN)NC(=O)[C@H](CCN)NC(=O)[C@H](CC(C)C)NC(=O)[C@@H](Cc2ccccc2)NC(=O)[C@H](CCN)NC1=O [compound 5385, 3(R)OH-nC9CO-D-Dab-cyc[L-Dab-L-Dab-D-Phe-L-Leu-L-Dab-L-Dap-L-Phe]] ({Decanoyl(3R-OH)}-[dDab][Dab][Dab][dF]L[Dab][Dap]F; lactam 2-C)
CC50 at 24 h (in vitro): 41 µM | MIC K. pneumoniae ATCC 13883 (K. pneumoniae ATCC 13883): 4 µg/mL (≈ 3.76 µM) | MIC P. aeruginosa GN_043, PmxR ([1]; polymyxin-resistant): 2 µg/mL (≈ 1.88 µM) | MIC K. pneumoniae ATCC BAA-2146, NDM-1 pos [2]: 4 µg/mL (≈ 3.76 µM) | MIC P. aeruginosa ATCC 27853 (P. aeruginosa ATCC 27853): 2 µg/mL (≈ 1.88 µM) | MIC E. coli ATCC 25922 (E. coli ATCC 25922): 4 µg/mL (≈ 3.76 µM) | MIC A. baumannii ATCC 19606 (A. baumannii ATCC 19606): 8 µg/mL (≈ 7.52 µM) | MIC P. aeruginosa GN_105, PmxR [3]: 2 µg/mL (≈ 1.88 µM) | MIC S. aureus ATCC 25923, MSSA [4]: 8 µg/mL (≈ 7.52 µM) | MIC A. baumannii GN_093 PmxR (A. baumannii GN_093 PmxR): 16 µg/mL (≈ 15 µM) | MIC K. pneumoniae GN_106, PmxR [5]: 16 µg/mL (≈ 15 µM) | MIC K. pneumoniae GN_102 PmxR [6]: 8 µg/mL (≈ 7.52 µM) | MIC K. pneumoniae ATCC 700603, MDR [7]: 8 µg/mL (≈ 7.52 µM)

CCCCCCC[C@@H](O)CC(=O)N[C@H](CCCN)C(=O)N[C@H]1CCNC(=O)[C@H]([C@@H](C)O)NC(=O)[C@H](CCN)NC(=O)[C@H](CCN)NC(=O)[C@H](CC(C)C)NC(=O)[C@@H](Cc2ccccc2)NC(=O)[C@H](CCN)NC1=O [compound 6396, 3(R)OH-nC9CO-D-Orn-cyc[L-Dab-L-Dab-D-Phe-L-Leu-L-Dab-L-Dab-L-Thr]] ({Decanoyl(3R-OH)}-[dOrn][Dab][Dab][dF]L[Dab][Dab]T; lactam 2-C)
CC50 at 24 h (in vitro): > 300 µM | MIC K. pneumoniae ATCC 13883 (K. pneumoniae ATCC 13883): >64 µg/mL | MIC P. aeruginosa GN_043, PmxR ([1]; P. aeruginosa GN_043, PmxR): 16 µg/mL (≈ 15.3 µM) | MIC K. pneumoniae ATCC BAA-2146, NDM-1 pos [2]: 32 µg/mL (≈ 30.6 µM) | MIC P. aeruginosa ATCC 27853 (P. aeruginosa ATCC 27853): 16 µg/mL (≈ 15.3 µM) | MIC E. coli ATCC 25922 (E. coli ATCC 25922): 16 µg/mL (≈ 15.3 µM) | MIC A. baumannii ATCC 19606 (A. baumannii ATCC 19606): >64 µg/mL | MIC P. aeruginosa GN_105, PmxR [3]: 16 µg/mL (≈ 15.3 µM) | MIC S. aureus ATCC 25923, MSSA [4]: >32 µg/mL | MIC A. baumannii GN_093 PmxR (A. baumannii GN_093 PmxR): >32 µg/mL | MIC K. pneumoniae GN_106, PmxR [5]: >32 µg/mL | MIC K. pneumoniae GN_102 PmxR [6]: >32 µg/mL | MIC K. pneumoniae ATCC 700603, MDR [7]: 16 µg/mL (≈ 15.3 µM)

CCCCCCC[C@@H](O)CC(=O)N[C@@H](C)C(=O)N[C@H]1CCNC(=O)[C@H](CC(C)C)NC(=O)[C@H](CCN)NC(=O)[C@H](CCN)NC(=O)[C@H](CC(C)C)NC(=O)[C@@H](Cc2ccccc2)NC(=O)[C@H](CCN)NC1=O [compound 4950, 3(R)OH-nC9CO-L-Ala-cyc[L-Dab-L-Dab-D-Phe-L-Leu-L-Dab-L-Dab-L-Leu]] ({Decanoyl(3R-OH)}-A[Dab][Dab][dF]L[Dab][Dab]L; lactam 2-C)
CC50 at 24 h (in vitro): 286 µM | MIC, K. pneumoniae ATCC 13883 (K. pneumoniae ATCC 13883): 16 µg/mL (≈ 15.8 µM) | MIC P. aeruginosa GN_043, PmxR ([1]; Table 6, polymyxin-resistant): 16 µg/mL (≈ 15.8 µM) | MIC, K. pneumoniae ATCC BAA-2146, NDM-1 pos [2]: 16 µg/mL (≈ 15.8 µM) | MIC, P. aeruginosa ATCC 27853 (P. aeruginosa ATCC 27853): 16 µg/mL (≈ 15.8 µM) | MIC, E. coli ATCC 25922 (E. coli ATCC 25922): 32 µg/mL (≈ 31.5 µM) | MIC, A. baumannii ATCC 19606 (A. baumannii ATCC 19606): >32 µg/mL | MIC P. aeruginosa GN_105, PmxR [3]: 32 µg/mL (≈ 31.5 µM) | MIC, S. aureus ATCC 25923, MSSA [4]: >32 µg/mL | MIC A. baumannii GN_093 PmxR (A. baumannii GN_093 PmxR): >32 µg/mL | MIC K. pneumoniae GN_106, PmxR [5]: 32 µg/mL (≈ 31.5 µM) | MIC K. pneumoniae GN_102 PmxR [6]: 8 µg/mL (≈ 7.88 µM) | MIC, K. pneumoniae ATCC 700603, MDR [7]: 16 µg/mL (≈ 15.8 µM)

CCCCCCC[C@@H](O)CC(=O)N[C@H](Cc1cccnc1)C(=O)N[C@H]1CCNC(=O)[C@H]([C@@H](C)O)NC(=O)[C@H](CCN)NC(=O)[C@H](CCN)NC(=O)[C@H](CC(C)C)NC(=O)[C@@H](Cc2ccccc2)NC(=O)[C@H](CCN)NC1=O [compound 6398, 3(R)OH-nC9CO-D-3PyPhe-cyc[L-Dab-L-Dab-D-Phe-L-Leu-L-Dab-L-Dab-L-Thr]] ({Decanoyl(3R-OH)}-[d3Pal][Dab][Dab][dF]L[Dab][Dab]T; lactam 2-C)
CC50 at 24 h (in vitro): > 300 µM | MIC K. pneumoniae ATCC 13883 (K. pneumoniae ATCC 13883): >64 µg/mL | MIC P. aeruginosa GN_043, PmxR ([1]; P. aeruginosa GN_043, PmxR): >32 µg/mL | MIC K. pneumoniae ATCC BAA-2146, NDM-1 pos [2]: >64 µg/mL | MIC P. aeruginosa ATCC 27853 (P. aeruginosa ATCC 27853): 32 µg/mL (≈ 29.6 µM) | MIC E. coli ATCC 25922 (E. coli ATCC 25922): >64 µg/mL | MIC A. baumannii ATCC 19606 (A. baumannii ATCC 19606): >64 µg/mL | MIC P. aeruginosa GN_105, PmxR [3]: >32 µg/mL | MIC S. aureus ATCC 25923, MSSA [4]: >32 µg/mL | MIC A. baumannii GN_093 PmxR (A. baumannii GN_093 PmxR): >32 µg/mL | MIC K. pneumoniae GN_106, PmxR [5]: >32 µg/mL | MIC K. pneumoniae GN_102 PmxR [6]: 32 µg/mL (≈ 29.6 µM) | MIC K. pneumoniae ATCC 700603, MDR [7]: >64 µg/mL
